From patent publication US8466176B2 (priority 2008, dated 2013)

Experiments:
[1] = method [c]: LC-MS at pH 7.8, 0.001 molar ammonium hydrogen carbonate in water, linear gradient 10% to 95% acetonitrile
[2] = Measurement of logP values according EEC directive 79/831 Annex V.A8 by HPLC on reversed phase columns; format: physicochemical; conditions: reversed phase HPLC columns; method [a]: pH 2.3 with 0.1% phosphoric acid and acetonitrile as eluent; read-out: log p
[3] = logP(HCOOH) reported with HPLC/MS; conditions: logP(HCOOH), HPLC/MS

| SMILES | log p [1] | chromatographic logP [2] | chromatographic logP ([3]; HPLC) | chromatographic logP [3] | chromatographic logP ([3]; HCOOH (formic acid)) |
| --- | --- | --- | --- | --- | --- |
| COCC#Cc1cccc(CON=C(c2ccccc2)c2nnnn2C)n1 [Example 24] | 3.04^[c] |  |  |  |  |
| CCCC/C=C/c1nc(CON=C(c2ccccc2)c2nnnn2C)cs1 [Example 278, N-({2-[(1E)-hex-1-en-1-yl]-1,3-thiazol-4-yl}methoxy)-1-(1-methyl-1H-tetrazol-5-yl)-1-phenylmethanimine] |  | 4.56 | 4.56 |  |  |
| Cn1nnnc1C(=NOCc1cccc(C=NOC2CCCCC2)n1)c1ccccc1 [Example 274, N-[(6-{[(cyclohexyloxy)imino]methyl}pyridin-2-yl)methoxy]-1-(1-methyl-1H-tetrazol-5-yl)-1-phenylmethanimine] |  | 4.89 |  | 4.89 |  |
| Cn1nnnc1C(=NOCc1cccc(CO)n1)c1ccccc1 [Example 275, {6-[({[(1-methyl-1H-tetrazol-5-yl)(phenyl)methylene]amino}oxy)methyl]pyridin-2-yl}methanol] |  | 1.76 |  |  | 1.76 |
